Reference: US20230017786A1, “DEXTR[…] A DISEASE-MODIFYING TREATMENT FOR NEUROPSYCHIATRIC DISORDERS AND DISEASES” (priority 2020, published 2023)
“And” between values parts separate entries of the source, which are not always exact repeats. Equal values may be shown once. Where a name gives a salt, the structure may show the parent alone.

Legend:
Assay type in all cases: cell-based
[1] = target: T1, human NMDA receptor GluN1-GluN2A (Homo sapiens, UniProt Q05586+Q12879); assay: FLIPR calcium assay, test item effect on L-glutamate CRC, GluN1-GluN2A-CHO
T1 construct: expressed in transfected cells; host or cells: CHO
T1 sequence (Q12879 23-1464, other chains not shown): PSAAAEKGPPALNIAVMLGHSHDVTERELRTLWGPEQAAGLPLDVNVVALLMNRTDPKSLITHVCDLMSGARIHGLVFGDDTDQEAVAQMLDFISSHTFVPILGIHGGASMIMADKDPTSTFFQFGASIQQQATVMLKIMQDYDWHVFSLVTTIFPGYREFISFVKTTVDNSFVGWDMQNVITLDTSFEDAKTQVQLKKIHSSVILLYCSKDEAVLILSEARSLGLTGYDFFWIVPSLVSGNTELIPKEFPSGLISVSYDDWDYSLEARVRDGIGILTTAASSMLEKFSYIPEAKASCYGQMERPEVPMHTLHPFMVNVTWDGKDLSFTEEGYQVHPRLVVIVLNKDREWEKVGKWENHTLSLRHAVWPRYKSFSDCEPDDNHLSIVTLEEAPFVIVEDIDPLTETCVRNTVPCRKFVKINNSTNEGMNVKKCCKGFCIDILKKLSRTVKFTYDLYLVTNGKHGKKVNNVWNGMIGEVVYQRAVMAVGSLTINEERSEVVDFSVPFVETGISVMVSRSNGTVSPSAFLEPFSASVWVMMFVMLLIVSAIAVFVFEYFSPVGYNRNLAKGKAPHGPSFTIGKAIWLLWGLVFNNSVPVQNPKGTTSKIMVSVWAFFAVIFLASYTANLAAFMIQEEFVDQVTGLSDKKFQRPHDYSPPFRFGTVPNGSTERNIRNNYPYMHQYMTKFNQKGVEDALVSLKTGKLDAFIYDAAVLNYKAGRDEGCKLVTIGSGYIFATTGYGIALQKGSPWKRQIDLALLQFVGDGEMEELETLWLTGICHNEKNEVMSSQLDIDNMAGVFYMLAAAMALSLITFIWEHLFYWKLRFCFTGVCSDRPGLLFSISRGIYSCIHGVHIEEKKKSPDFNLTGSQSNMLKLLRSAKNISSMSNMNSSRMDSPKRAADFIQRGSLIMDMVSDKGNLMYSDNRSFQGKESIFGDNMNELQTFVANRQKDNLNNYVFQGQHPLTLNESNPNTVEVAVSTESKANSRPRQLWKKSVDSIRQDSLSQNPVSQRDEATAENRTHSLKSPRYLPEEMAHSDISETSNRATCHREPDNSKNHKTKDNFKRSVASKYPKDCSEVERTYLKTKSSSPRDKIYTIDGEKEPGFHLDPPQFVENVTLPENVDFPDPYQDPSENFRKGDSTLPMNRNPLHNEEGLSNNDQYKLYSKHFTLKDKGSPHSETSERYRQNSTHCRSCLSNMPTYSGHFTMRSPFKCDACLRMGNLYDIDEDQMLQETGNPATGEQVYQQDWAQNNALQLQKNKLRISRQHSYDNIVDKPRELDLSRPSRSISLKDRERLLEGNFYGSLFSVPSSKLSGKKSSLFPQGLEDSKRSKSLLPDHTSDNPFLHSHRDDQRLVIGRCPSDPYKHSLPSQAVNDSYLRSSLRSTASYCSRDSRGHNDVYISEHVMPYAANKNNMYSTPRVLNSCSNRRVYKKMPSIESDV
Method: (§1) FLIPR determination of intracellular calcium level was used as a read-out for NMDAR activation.
(§2) 400× compound plate was stored at −20° C. until FLIPR experimental day.
(§3) 4× compound plate was generated from 400× compound plate by addition of up to 30 μl/well of compound buffer on FLIPR experimental day.
(§4) A FLIPR system was used to monitor intracellular calcium level in NMDAR cell lines, pre-loaded for 1 hour with Fluo-4, and then washed with assay buffer.
(§5) Y=Bottom+(Top−Bottom)/(1+10^((LogEC50−Log[A])*HillSlope))

[2] = target: T2, human NMDA receptor GluN1-GluN2B (Homo sapiens, UniProt Q05586+Q13224); assay: cell-based
T2 construct: expressed in transfected cells; host or cells: CHO
T2 sequence (Q13224 27-1484, other chains not shown): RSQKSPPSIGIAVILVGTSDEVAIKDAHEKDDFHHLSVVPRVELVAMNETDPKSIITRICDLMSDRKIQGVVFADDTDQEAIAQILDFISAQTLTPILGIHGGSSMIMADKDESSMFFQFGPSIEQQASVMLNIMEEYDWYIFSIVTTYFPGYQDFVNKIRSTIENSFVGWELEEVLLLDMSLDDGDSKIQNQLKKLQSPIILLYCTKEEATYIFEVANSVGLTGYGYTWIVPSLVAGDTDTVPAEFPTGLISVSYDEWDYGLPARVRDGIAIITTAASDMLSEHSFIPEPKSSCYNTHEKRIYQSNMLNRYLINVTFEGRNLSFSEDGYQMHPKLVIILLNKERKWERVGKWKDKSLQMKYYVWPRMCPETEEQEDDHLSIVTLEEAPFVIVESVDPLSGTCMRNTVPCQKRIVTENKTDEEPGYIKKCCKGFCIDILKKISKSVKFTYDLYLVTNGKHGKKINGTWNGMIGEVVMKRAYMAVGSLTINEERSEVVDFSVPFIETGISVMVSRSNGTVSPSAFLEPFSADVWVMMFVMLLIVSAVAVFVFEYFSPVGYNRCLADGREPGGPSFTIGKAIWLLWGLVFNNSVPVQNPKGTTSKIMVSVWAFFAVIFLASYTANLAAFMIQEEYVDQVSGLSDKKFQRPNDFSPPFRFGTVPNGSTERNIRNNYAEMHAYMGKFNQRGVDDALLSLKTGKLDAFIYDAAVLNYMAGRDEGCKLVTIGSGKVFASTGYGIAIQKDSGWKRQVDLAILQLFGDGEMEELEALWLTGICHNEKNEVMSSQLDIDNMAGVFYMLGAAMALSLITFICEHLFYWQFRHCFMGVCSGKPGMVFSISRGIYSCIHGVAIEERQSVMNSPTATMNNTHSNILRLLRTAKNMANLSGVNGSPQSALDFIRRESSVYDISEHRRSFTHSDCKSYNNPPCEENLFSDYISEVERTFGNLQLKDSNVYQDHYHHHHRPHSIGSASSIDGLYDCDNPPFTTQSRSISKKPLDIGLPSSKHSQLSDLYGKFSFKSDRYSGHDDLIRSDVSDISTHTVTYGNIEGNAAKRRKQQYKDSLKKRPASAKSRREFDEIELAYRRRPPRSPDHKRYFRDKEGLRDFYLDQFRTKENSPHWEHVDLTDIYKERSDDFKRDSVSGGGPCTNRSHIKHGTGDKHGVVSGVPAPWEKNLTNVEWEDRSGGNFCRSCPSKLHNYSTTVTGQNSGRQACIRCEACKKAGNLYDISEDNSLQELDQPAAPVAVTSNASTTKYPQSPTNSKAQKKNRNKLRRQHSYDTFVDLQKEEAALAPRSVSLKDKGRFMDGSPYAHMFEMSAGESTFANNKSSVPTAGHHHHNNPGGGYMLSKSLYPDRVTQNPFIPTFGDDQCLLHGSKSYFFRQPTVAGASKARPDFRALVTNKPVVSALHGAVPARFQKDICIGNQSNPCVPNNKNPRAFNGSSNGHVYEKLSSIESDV
Method: as §1, §2, §3, §4, §5

[3] = target: T3, human NMDA receptor GluN1-GluN2C (Homo sapiens, UniProt Q05586+Q14957); assay: FLIPR calcium assay, test item effect on L-glutamate CRC, GluN1-GluN2C-CHO
T3 construct: expressed in transfected cells; host or cells: CHO
T3 sequence (Q14957 20-1233, other chains not shown): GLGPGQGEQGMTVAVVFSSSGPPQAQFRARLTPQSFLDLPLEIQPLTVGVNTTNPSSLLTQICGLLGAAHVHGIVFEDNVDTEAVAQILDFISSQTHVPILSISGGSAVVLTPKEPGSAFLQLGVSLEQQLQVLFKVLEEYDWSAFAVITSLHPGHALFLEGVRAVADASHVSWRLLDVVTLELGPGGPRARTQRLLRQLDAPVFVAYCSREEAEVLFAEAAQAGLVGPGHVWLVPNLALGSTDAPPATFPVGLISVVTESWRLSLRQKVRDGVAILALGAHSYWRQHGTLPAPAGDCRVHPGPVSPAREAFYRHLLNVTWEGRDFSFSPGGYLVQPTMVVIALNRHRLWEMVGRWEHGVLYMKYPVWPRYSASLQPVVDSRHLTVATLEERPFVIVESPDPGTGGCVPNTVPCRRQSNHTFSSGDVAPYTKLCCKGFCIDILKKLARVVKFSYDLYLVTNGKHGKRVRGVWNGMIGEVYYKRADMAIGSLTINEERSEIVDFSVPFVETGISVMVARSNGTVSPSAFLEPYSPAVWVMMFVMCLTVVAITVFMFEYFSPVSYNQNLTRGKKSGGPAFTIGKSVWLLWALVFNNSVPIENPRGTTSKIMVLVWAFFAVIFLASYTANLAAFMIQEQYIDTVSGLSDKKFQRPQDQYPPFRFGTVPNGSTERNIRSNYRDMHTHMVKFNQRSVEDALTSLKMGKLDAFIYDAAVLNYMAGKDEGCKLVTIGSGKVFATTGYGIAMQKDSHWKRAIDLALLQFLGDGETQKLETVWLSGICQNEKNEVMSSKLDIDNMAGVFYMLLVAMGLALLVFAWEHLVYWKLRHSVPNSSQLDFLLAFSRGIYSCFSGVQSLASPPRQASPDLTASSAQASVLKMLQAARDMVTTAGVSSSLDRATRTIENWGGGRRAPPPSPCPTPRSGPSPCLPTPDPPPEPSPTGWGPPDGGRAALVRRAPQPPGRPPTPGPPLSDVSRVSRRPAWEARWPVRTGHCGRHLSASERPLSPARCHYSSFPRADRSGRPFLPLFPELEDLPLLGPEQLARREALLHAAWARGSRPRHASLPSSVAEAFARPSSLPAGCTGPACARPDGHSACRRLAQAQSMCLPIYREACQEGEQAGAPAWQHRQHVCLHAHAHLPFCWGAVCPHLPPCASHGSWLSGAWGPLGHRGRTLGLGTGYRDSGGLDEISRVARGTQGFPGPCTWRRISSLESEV
Method: as §1, §2, §3, §4, §5

[4] = target: T4, human NMDA receptor GluN1-GluN2D (Homo sapiens, UniProt O15399+Q05586); assay: FLIPR calcium assay, test item effect on L-glutamate CRC, GluN1-GluN2D-CHO
T4 construct: expressed in transfected cells; host or cells: CHO
Method: as §1, §2, §3, §4, §5

[5] = target: T1, human NMDA receptor GluN1-GluN2A; assay: FLIPR calcium assay, quinolinic acid, gentamicin, dextromethadone (Example 5 Part II), GluN1-GluN2A-CHO; set-up: calcium response (mean±SEM): unit not given here; conditions: 10 μM glycine, GluN2A, n=42
Method: (§6) Quinolinic acid or gentamicin CRCs were also produced, in presence of 10 μM glycine.
(§7) Test items were evaluated in FLIPR for their ability to modulate, alone or in combination, calcium entry in presence of […], using four CHO cell lines expressing diheteromeric human NMDA receptor (NMDAR): GluN-/GluN2A-CHO, GluN1-GluN2B-CHO, GluN1-GluN2C-CHO, GluN1-GluN2D-CHO.
(§8) The first aim of the study was to evaluate quinolinic acid or gentamicin CRC effect in the presence of 10 μM glycine.
as §1
(§9) 400× compound plate was stored at −20° C. till FLIPR experimental day.
(§10) A 4× compound plate was generated from 400× compound plate by addition of up to 30 μl/well of compound buffer on FLIPR experimental day.
as §4
(§11) Y=Bottom+(Top−Bottom)/(1+10^((LogEC50−X)*HillSlope))
(§12) Test item CRC data were plotted by Prism 8 GraphPad software, in the different experimental conditions. And, column analysis, performed by Prism 8 GraphPad software, was one way ANOVA followed by Tukey's multiple comparisons test, with a single pooled variance.

[6] = target: T2, human NMDA receptor GluN1-GluN2B; assay: FLIPR calcium assay, quinolinic acid, gentamicin, dextromethadone (Example 5 Part II), GluN1-GluN2B-CHO; conditions: 10 μM glycine, GluN2B, n=42
Method: as §6, §7, §8, §1, §9, §10, §4, §11, §12

[7] = target: T3, human NMDA receptor GluN1-GluN2C; assay: FLIPR calcium assay, quinolinic acid, gentamicin, dextromethadone (Example 5 Part II), GluN1-GluN2C-CHO; conditions: 10 μM glycine; for calcium response (mean±SEM): GluN2C, n=42
Method: as §6, §7, §8, §1, §9, §10, §4, §11, §12

[8] = target: T4, human NMDA receptor GluN1-GluN2D; assay: FLIPR calcium assay, quinolinic acid, gentamicin, dextromethadone (Example 5 Part II), GluN1-GluN2D-CHO; conditions: 10 μM glycine; for calcium response (mean±SEM): GluN2D, n=42
Method: as §6, §7, §8, §1, §9, §10, §4, §11, §12

[9] = system: diheteromeric human recombinant NMDAR containing GluN1 plus GluN2A, GluN2B, GluN2C or GluN2D; assay: FLIPR calcium assay, statements for all four NMDAR subtypes together; conditions: for profile on L-glutamate CRC: 6 test item concentrations
Description: An operational equation for allosteric modulators (Leach K, Sexton P M and Christopoulos A, Allosteric GPCR modulators: taking advantage of permissive receptor pharmacology, Trends Pharmacol. Sci. 28: 382-389, 2007; Kenakin T P, Overview of receptor interaction of agonists and antagonists, Curr. Protoc. Pharmacol. Chapter 4: Unit 4.1, 2008, Kenakin T P, Biased signalling and allosteric machines: new vistas and challenges for drug discovery, Br. J. Pharmacol. 165: 1659-1669, 2012) was created in Prism 8 (GraphPad) software to estimate KB and a parameters for every test item, with the assumption that, as a pore blocker, every test item would be able to produce a compete blockade of agonist response, at sufficiently high concentration: […]

[10] = L-glutamate alone, 10 μM glycine
[11] = calculated from EC50 and Hill slope
[12] = operational analysis for allosteric modulators

## N[C@@H](CCC(=O)O)C(=O)O [L-glutamate, L-glutamic acid]
[1]; [10]
  Bottom: −0.62
  HillSlope: 1.0
  Span: 107
  Top: 106
[1]; [11]
  ECF, F=5: 160 nM
  ECF, F=10: 280 nM
  ECF, F=20: 630 nM
  ECF, F=30: 1.07 µM
  ECF, F=40: 1.67 µM
  ECF, F=90: 23 µM
  ECF, F=95: 48 µM
  ECF, F=99 (maximal effect): 250 µM
[2]
  Bottom: 1.7
  ECF, F=5: 140 nM
  ECF, F=10: 240 nM
  ECF, F=20: 450 nM
  ECF, F=30: 680 nM
  ECF, F=40: 950 nM
  ECF, F=90: 7.05 µM
  ECF, F=95: 13 µM
  ECF, F=99 (maximal effect): 45 µM
  HillSlope: 1.3
  Span: 109
  Top: 111
[3]; [10]
  Bottom: 0.88
  HillSlope: 1.5
  LogEC50: −7.1
  Span: 105
  Top: 106
[3]; [11]
  ECF, F=5: 120 nM
  ECF, F=10: 200 nM
  ECF, F=20: 350 nM
  ECF, F=30: 500 nM
  ECF, F=40: 660 nM
  ECF, F=90: 3.76 µM
  ECF, F=95: 6.19 µM
  ECF, F=99 (maximal effect): 19 µM
[4]; [10]
  Bottom: 5.3
  HillSlope: 1.6
  LogEC50: −7.5
  Span: 99
  Top: 105
[4]; [11]
  ECF, F=5: 54 nM
  ECF, F=10: 86 nM
  ECF, F=20: 140 nM
  ECF, F=30: 200 nM
  ECF, F=40: 260 nM
  ECF, F=90: 1.34 µM
  ECF, F=95: 2.14 µM
  ECF, F=99 (maximal effect): 6 µM and 6.01 µM
[5]; 0.04 μM L-Glu
  calcium response (mean±SEM): 1.7 ± 0.3
[5]; 0.2 μM L-Glu
  calcium response (mean±SEM): 22 ± 0.7
[5]; Table 41: 0.04 μM L-Glu
  calcium response (mean±SEM): 1.7 ± 0.3
[5]; Table 43: 0.2 μM L-Glu
  calcium response (mean±SEM): 22 ± 0.7
[6]; 0.04 μM L-Glu
  calcium response (mean±SEM): −0.9 ± 0.6
[6]; 0.2 μM L-Glu
  calcium response (mean±SEM): 18 ± 1.2
[6]; Table 41: 0.04 μM L-Glu
  calcium response (mean±SEM): 0.9 ± 0.6
[6]; Table 43: 0.2 μM L-Glu
  calcium response (mean±SEM): 18 ± 1.2
[7]; 0.04 μM L-Glu
  calcium response (mean±SEM): −1.2 ± 0.6
[7]; 0.2 μM L-Glu
  calcium response (mean±SEM): 30 ± 1.7
[7]; L-glutamate alone
  intracellular calcium increase elicited by 0.2 μM L-glutamate: 30±1.7%
[7]; Table 41: 0.04 μM L-Glu
  calcium response (mean±SEM): −1.2 ± 0.6
[7]; Table 43: 0.2 μM L-Glu
  calcium response (mean±SEM): 30 ± 1.7
[8]; 0.04 μM L-Glu
  calcium response (mean±SEM): 18 ± 1.2
[8]; 0.2 μM L-Glu
  calcium response (mean±SEM): 92 ± 2.0
[8]
  efficacy of 0.2 μM L-glutamate alone: 92±2.0%
[8]; Table 41: 0.04 μM L-Glu
  calcium response (mean±SEM): 18 ± 1.2
[8]; Table 43: 0.2 μM L-Glu
  calcium response (mean±SEM): 92 ± 2.0

## CC12CC3CC(C)(C1)CC(N)(C3)C2 [Memantine, memantine hydrochloride]
[1]; [12]
  α, estimated cooperativity term: 0.15
[1]; with test item 49 nM
  L-glutamate CRC Bottom: 0.84
  L-glutamate CRC HillSlope: 1.1
  L-glutamate CRC LogEC50: −6.6
  L-glutamate CRC Top: 95
[1]; with test item 195 nM
  L-glutamate CRC Bottom: 1.3
  L-glutamate CRC HillSlope: 1.2
  L-glutamate CRC LogEC50: −6.5
  L-glutamate CRC Top: 92
[1]; with test item 781 nM
  L-glutamate CRC Bottom: 1.1
  L-glutamate CRC HillSlope: 1.2
  L-glutamate CRC LogEC50: −6.3
  L-glutamate CRC Top: 96
[1]; with test item 3.1 μM
  L-glutamate CRC Bottom: −0.58
  L-glutamate CRC HillSlope: 1.1
  L-glutamate CRC LogEC50: −6.4
  L-glutamate CRC Top: 83
[1]; with test item 12.5 μM
  L-glutamate CRC Bottom: −0.14
  L-glutamate CRC HillSlope: 1.3
  L-glutamate CRC LogEC50: −6.3
  L-glutamate CRC Top: 68
[1]; with test item 50 μM
  L-glutamate CRC Bottom: 1.5
  L-glutamate CRC HillSlope: 1.6
  L-glutamate CRC LogEC50: −6.1
  L-glutamate CRC Top: 36
[2]
  α, estimated cooperativity term: 0.094
[2]; hydrochloride
  L-glutamate CRC HillSlope: 2.1 and 1.5 and 1.1 and 1.7 and 1.4
[3]; [12]
  α, estimated cooperativity term: 0.10
[3]; with test item 49 nM
  L-glutamate CRC Bottom: 2.2
  L-glutamate CRC HillSlope: 1.4
  L-glutamate CRC LogEC50: −6.8
  L-glutamate CRC Top: 92
[3]; with test item 195 nM
  L-glutamate CRC Bottom: 2.0
  L-glutamate CRC HillSlope: 1.5
  L-glutamate CRC LogEC50: −6.9
  L-glutamate CRC Top: 85
[3]; with test item 781 nM
  L-glutamate CRC Bottom: 0.92
  L-glutamate CRC HillSlope: 1.4
  L-glutamate CRC Top: 76
[3]; with test item 3.1 μM
  L-glutamate CRC Bottom: 1.3
  L-glutamate CRC HillSlope: 1.2
  L-glutamate CRC LogEC50: −6.5
  L-glutamate CRC Top: 49
[3]; with test item 12.5 μM
  L-glutamate CRC Bottom: 2.5
  L-glutamate CRC HillSlope: 1.1
  L-glutamate CRC LogEC50: −6.4
  L-glutamate CRC Top: 20
[3]; with test item 50 μM
  L-glutamate CRC Bottom: 7.4
  L-glutamate CRC HillSlope: 6.1
  L-glutamate CRC LogEC50: −6.3
  L-glutamate CRC Top: 11
[4]; [12]
  α, estimated cooperativity term: 0.13
[4]; with test item 49 nM
  L-glutamate CRC Bottom: 5.1
  L-glutamate CRC HillSlope: 1.4
  L-glutamate CRC LogEC50: −7.3
  L-glutamate CRC Top: 94
[4]; with test item 195 nM
  L-glutamate CRC Bottom: −0.19
  L-glutamate CRC HillSlope: 1.3
  L-glutamate CRC LogEC50: −7.3
  L-glutamate CRC Top: 89
[4]; with test item 781 nM
  L-glutamate CRC Bottom: 1.1
  L-glutamate CRC HillSlope: 1.4
  L-glutamate CRC LogEC50: −7.2
  L-glutamate CRC Top: 87
[4]; with test item 3.1 μM
  L-glutamate CRC Bottom: −1.3
  L-glutamate CRC HillSlope: 1.3
  L-glutamate CRC LogEC50: −7.1
  L-glutamate CRC Top: 59
[4]; with test item 12.5 μM
  L-glutamate CRC Bottom: 1.4
  L-glutamate CRC HillSlope: 1.5
  L-glutamate CRC LogEC50: −6.7
  L-glutamate CRC Top: 26
[4]; with test item 50 μM
  L-glutamate CRC Bottom: −97133
  L-glutamate CRC HillSlope: 0.14
  L-glutamate CRC LogEC50: −37
  L-glutamate CRC Top: 19
[9]
  profile on L-glutamate CRC: insurmountable profile

## (+)-MK 801 maleate
[9]
  profile on L-glutamate CRC: insurmountable profile
[9]; from estimated affinities
  GluN2 subunit preference: slight preference for GluN2B containing NMDAR
[9]; read-out: estimated KB with any/all of the NMDAR subtypes
  Kb: 50 nM and ≤ 50 nM
